# Laboratory results as given in patent US8808737B2 (Endo Pharmaceuticals Inc., priority 2007, dated 2014).
# What was measured:
# [1] = Pain levels (VAS, categorical scale) vs plasma oxymorphone and 6-hydroxyoxymorphone after a single dose; type: in vivo, human; conditions: single dose of oxymorphone, FIGS. 1-4
# Protocol: For these tests, pain was measured using a Visual Analog Scale (VAS) or a Categorical Scale. The VAS scales consisted of a horizontal line, 100 mm in length. The left-hand end of the scale (0 mm) was marked with the descriptor “No Pain” and the right-hand end of the scale (100 mm) was marked with the descriptor “Extreme Pain”. Patients indicated their level of pain by making a vertical mark on the line. The VAS score was equal to the distance (in mm) from the left-hand end of the scale to the patient's mark. For the categorical scale, patients completed the following statement, “My pain at this time is” using the scale None=0, Mild=1, Moderate=2, or Severe=3.
# [2] = Example 5: urinary excretion of oxymorphone and metabolites after EN3202 in renal impairment; conditions: for Mean percentage of the administered dose excreted in the urine / Mean urinary elimination half-life: EN3202 20 mg; for Mean percentage of the administered dose excreted in the urine: 0-120 hours; for Mean (SD) Ratio of Metabolite/Parent Excreted in Urine: parent = oxymorphone; for Mean (SD) Percent of Dose Recovered in Urine (0-120 hours): single oral 20-mg dose of EN3202
# Protocol: (§1) Attempts were made to match controls with the renal impaired patients with respect to age, gender, and weight. […] Naltrexone (50 mg) was administered on the evening prior to administration of the EN3202 dose.
# Each subject was to be instructed to void at the end of each interval (so that each collection interval began with an empty bladder). The void prior to administration of the test medication (time 0) served as the pre-dose blank and was not be included in the collection container.
# (§2) Plasma and urine pharmacokinetic variables were calculated from the concentration data using standard, non-compartmental methods as outlined in the following table.
# [3] = Example 5: plasma pharmacokinetics of oxymorphone and metabolites after EN3202 in renal impairment vs healthy controls; conditions: for Mean bioavailability ratio (90% confidence interval) for AUC relative to controls / Mean bioavailability ratio (90% confidence interval) for Cmax relative to controls: ln-transformed; for AUC in plasma (mean, untransformed) / AUCT in plasma (mean, untransformed) / Cmax in plasma (mean, untransformed) / Ke, terminal elimination rate constant in plasma (mean) / Tmax in plasma (median) / t½, terminal elimination half-life in plasma (mean): single 20 mg dose of EN3202
# Protocol: as §1
# In order to protect the subjects from potential opioid-related adverse events, a single 50-mg dose of the opioid antagonist ReVia® (naltrexone HCl) was administered at 20:00 the evening prior to administration of test medication. […] Subjects continued fasting until four (4) hours after dose administration. The subjects remained in an upright posture (sitting or standing) for 1 hour after dose administration. All doses were administered with 240 mL of water (room temperature), and the subjects were instructed to drink all the water.
# as §2
# All pharmacokinetic results are summarized using appropriate descriptive statistics. Continuous variables were compared between renally impaired and control groups using appropriate parametric statistics. 90% confidence intervals were calculated for the differences or ratios between the renally impaired and control groups. In addition, the association between oral clearance (and other pharmacokinetic variables) and the severity of renal insufficiency (based on creatinine clearance) was explored.
# [4] = Example 5: correlation of oxymorphone and metabolite plasma AUC / oral clearance with creatinine clearance; type: in vivo, human; conditions: linear regression; for AUC/wt vs. CLCR: R-square / AUC/wt vs. CLCR: Slope: AUC normalized for body weight vs creatinine clearance; for AUC vs. CLCR: R-square / AUC vs. CLCR: Slope: plasma AUC vs creatinine clearance
# Excerpt: Creatinine clearance (ClCR) was estimated at screening using the following Cockroft and Gault^8 equation: […]
# All pharmacokinetic results are summarized using appropriate descriptive statistics.
# The potential association between plasma AUC and creatinine clearance was explored using linear regression techniques and the results are summarized in Table 36 and FIG. 16.
# [5] = subjects with mild renal impairment
# [6] = subjects with moderate renal impairment
# [7] = subjects with severe renal impairment
# [8] = EN3202 20 mg, mild renal impairment
# [9] = EN3202 20 mg, moderate renal impairment
# [10] = EN3202 20 mg, severe renal impairment
# [11] = Healthy Controls, listed as oxymorphone-3-glucuronide
# [12] = Severe Impairment, listed as oxymorphone-3-glucuronide
smiles,measurement,setting,value
"CN1CC[C@]23c4c5ccc(O)c4O[C@H]2C(O)CC[C@@]3(O)[C@H]1C5 (some centres unmarked) [6-OH-oxymorphone, 6-hydroxy oxymorphone]",Relation between pain relief and blood plasma level,[1],there is a correlation
same,Mean percentage of the administered dose excreted in the urine,[2]; severe renal impairment,0.16%
same,Mean urinary elimination half-life,[2]; healthy controls,22.8 h
same,Mean urinary elimination half-life,[2]; mild renal impairment,19.6 h
same,Mean urinary elimination half-life,[2]; moderate renal impairment,22.4 h
same,Mean urinary elimination half-life,[2]; severe renal impairment,34.4 h
same,Mean (SD) Ratio of Metabolite/Parent Excreted in Urine,[2]; healthy controls,0.85 (0.27)
same,Mean (SD) Percent of Dose Recovered in Urine (0-120 hours),[2]; healthy controls,0.62 (0.28) %
same,Mean (SD) Ratio of Metabolite/Parent Excreted in Urine,[2]; [5],0.73 (0.45)
same,Mean (SD) Percent of Dose Recovered in Urine (0-120 hours),[2]; [5],0.49 (0.15) %
same,Mean (SD) Ratio of Metabolite/Parent Excreted in Urine,[2]; [6],0.41 (0.22)
same,Mean (SD) Percent of Dose Recovered in Urine (0-120 hours),[2]; [6],0.26 (0.14) %
same,Mean (SD) Ratio of Metabolite/Parent Excreted in Urine,[2]; [7],0.47 (0.42)
same,Mean (SD) Percent of Dose Recovered in Urine (0-120 hours),[2]; [7],0.16 (0.11) %
same,Mean bioavailability ratio (90% confidence interval) for AUC relative to controls,[3]; [8],0.9953 (0.6153-1.6100)
same,Mean bioavailability ratio (90% confidence interval) for Cmax relative to controls,[3]; [8],1.4818
same,Mean bioavailability ratio (90% confidence interval) for AUC relative to controls,[3]; [9],0.9445 (0.5839-1.5279)
same,Mean bioavailability ratio (90% confidence interval) for AUC relative to controls,[3]; [10],1.3862 (0.8569-2.2423)
same,"AUC in plasma (mean, untransformed)",[3]; Healthy Controls,19.76 ng·h/mL
same,"AUCT in plasma (mean, untransformed)",[3]; Healthy Controls,14.95 ng·h/mL
same,"Cmax in plasma (mean, untransformed)",[3]; Healthy Controls,0.70 ng/mL
same,"Ke, terminal elimination rate constant in plasma (mean)",[3]; Healthy Controls,0.0449
same,Tmax in plasma (median),[3]; Healthy Controls,1.5 h
same,"t½, terminal elimination half-life in plasma (mean)",[3]; Healthy Controls,22.20 h
same,"AUC in plasma (mean, untransformed)",[3]; Mild Impairment,18.57 ng·h/mL
same,"AUCT in plasma (mean, untransformed)",[3]; Mild Impairment,14.26 ng·h/mL
same,"Cmax in plasma (mean, untransformed)",[3]; Mild Impairment,0.99 ng/mL
same,"Ke, terminal elimination rate constant in plasma (mean)",[3]; Mild Impairment,0.0451
same,Tmax in plasma (median),[3]; Mild Impairment,1.5 h
same,"t½, terminal elimination half-life in plasma (mean)",[3]; Mild Impairment,18.04 h
same,"AUC in plasma (mean, untransformed)",[3]; Moderate Impairment,17.64 ng·h/mL
same,"AUCT in plasma (mean, untransformed)",[3]; Moderate Impairment,11.70 ng·h/mL
same,"Cmax in plasma (mean, untransformed)",[3]; Moderate Impairment,0.76 ng/mL
same,"Ke, terminal elimination rate constant in plasma (mean)",[3]; Moderate Impairment,0.0312
same,Tmax in plasma (median),[3]; Moderate Impairment,2.5 h
same,"t½, terminal elimination half-life in plasma (mean)",[3]; Moderate Impairment,27.82 h
same,"AUC in plasma (mean, untransformed)",[3]; Severe Impairment,32.04 ng·h/mL
same,"AUCT in plasma (mean, untransformed)",[3]; Severe Impairment,26.48 ng·h/mL
same,"Cmax in plasma (mean, untransformed)",[3]; Severe Impairment,0.99 ng/mL
same,"Ke, terminal elimination rate constant in plasma (mean)",[3]; Severe Impairment,0.0349
same,Tmax in plasma (median),[3]; Severe Impairment,2.0 h
same,"t½, terminal elimination half-life in plasma (mean)",[3]; Severe Impairment,26.53 h
same,AUC/wt vs. CLCR: R-square,[4],0.1222
same,AUC/wt vs. CLCR: Slope,[4],−0.0011
same,AUC vs. CLCR: R-square,[4],0.0977
same,AUC vs. CLCR: Slope,[4],−0.1387
"CN1CC[C@]23c4c5ccc(O[C@@H]6O[C@H](C(=O)O)[C@@H](O)[C@H](O)[C@H]6O)c4O[C@H]2C(=O)CC[C@@]3(O)[C@H]1C5 [Oxymorphone-3-glucuronide, oxymorphone-3-glucuronide]",Mean percentage of the administered dose excreted in the urine,[2]; healthy controls,37.16%
same,Mean percentage of the administered dose excreted in the urine,[2]; severe renal impairment,38.35%
same,Mean urinary elimination half-life,[2]; healthy controls,12.7 h
same,Mean urinary elimination half-life,[2]; mild renal impairment,9.8 h
same,Mean urinary elimination half-life,[2]; moderate renal impairment,12.8 h
same,Mean urinary elimination half-life,[2]; severe renal impairment,36.6 h
same,Mean (SD) Ratio of Metabolite/Parent Excreted in Urine,[2]; healthy controls,51.78 (16.89)
same,Mean (SD) Percent of Dose Recovered in Urine (0-120 hours),[2]; healthy controls,37.16 (14.94) %
same,Mean (SD) Ratio of Metabolite/Parent Excreted in Urine,[2]; [5],72.17 (48.36)
same,Mean (SD) Percent of Dose Recovered in Urine (0-120 hours),[2]; [5],44.36 (8.72) %
same,Mean (SD) Ratio of Metabolite/Parent Excreted in Urine,[2]; [6],70.62 (37.69)
same,Mean (SD) Percent of Dose Recovered in Urine (0-120 hours),[2]; [6],38.87 (8.63) %
same,Mean (SD) Ratio of Metabolite/Parent Excreted in Urine,[2]; [7],112.44 (40.45)
same,Mean (SD) Percent of Dose Recovered in Urine (0-120 hours),[2]; [7],38.35 (13.10) %
same,Mean plasma metabolite:oxymorphone ratio of AUC values (molar units),"[3]; EN3202 20 mg, healthy controls",94.1
same,Mean plasma metabolite:oxymorphone ratio of AUC values (molar units),[3]; [8],132.3
same,Mean bioavailability ratio (90% confidence interval) for AUC relative to controls,[3]; [8],1.7960 (1.3071-2.4677)
same,Mean bioavailability ratio (90% confidence interval) for Cmax relative to controls,[3]; [8],1.5769 (1.2146-2.0473)
same,Mean plasma metabolite:oxymorphone ratio of AUC values (molar units),[3]; [9],191.4
same,Mean bioavailability ratio (90% confidence interval) for AUC relative to controls,[3]; [9],3.1196 (2.2704-4.2863)
same,Mean bioavailability ratio (90% confidence interval) for Cmax relative to controls,[3]; [9],1.9830 (1.5274-2.5745)
same,Mean plasma metabolite:oxymorphone ratio of AUC values (molar units),[3]; [10],505.6
same,Mean bioavailability ratio (90% confidence interval) for AUC relative to controls,[3]; [10],9.0701 (6.6013-12.462)
same,Mean bioavailability ratio (90% confidence interval) for Cmax relative to controls,[3]; [10],3.1422 (2.4202-4.0795)
same,Mean increase in plasma AUC values relative to healthy controls,"[3]; EN3202 20 mg, subjects with creatinine clearance values, 30 mL/min",~9.7 fold
same,"AUC in plasma (mean, untransformed)",[3]; Healthy Controls,2439.7 ng·h/mL
same,"AUCT in plasma (mean, untransformed)",[3]; Healthy Controls,2309.5 ng·h/mL
same,"Cmax in plasma (mean, untransformed)",[3]; Healthy Controls,170.1 ng/mL
same,Tmax in plasma (median),[3]; Healthy Controls,3.0 h
same,"t½, terminal elimination half-life in plasma (mean)",[3]; Healthy Controls,9.53 h
same,"AUC in plasma (mean, untransformed)",[3]; [11],2440 ng·h/mL
same,"Cmax in plasma (mean, untransformed)",[3]; [11],170 ng/mL
same,"t½, terminal elimination half-life in plasma (mean)",[3]; [11],9.5 h
same,"AUC in plasma (mean, untransformed)",[3]; Mild Impairment,4468.6 ng·h/mL
same,"AUCT in plasma (mean, untransformed)",[3]; Mild Impairment,4330.7 ng·h/mL
same,"Cmax in plasma (mean, untransformed)",[3]; Mild Impairment,280.2 ng/mL
same,Tmax in plasma (median),[3]; Mild Impairment,3.5 h
same,"t½, terminal elimination half-life in plasma (mean)",[3]; Mild Impairment,10.23 h
same,"AUC in plasma (mean, untransformed)",[3]; Moderate Impairment,8129.7 ng·h/mL
same,"AUCT in plasma (mean, untransformed)",[3]; Moderate Impairment,7959.9 ng·h/mL
same,"Cmax in plasma (mean, untransformed)",[3]; Moderate Impairment,359.7 ng/mL
same,Tmax in plasma (median),[3]; Moderate Impairment,4.5 h
same,"t½, terminal elimination half-life in plasma (mean)",[3]; Moderate Impairment,11.10 h
same,"AUC in plasma (mean, untransformed)",[3]; Severe Impairment,23604.2 ng·h/mL
same,"AUCT in plasma (mean, untransformed)",[3]; Severe Impairment,22313.6 ng·h/mL
same,"Cmax in plasma (mean, untransformed)",[3]; Severe Impairment,547.7 ng/mL
same,Tmax in plasma (median),[3]; Severe Impairment,11.0 h
same,"t½, terminal elimination half-life in plasma (mean)",[3]; Severe Impairment,22.09 h
same,"AUC in plasma (mean, untransformed)",[3]; [12],23604 ng·h/mL
same,"Cmax in plasma (mean, untransformed)",[3]; [12],548 ng/mL
same,"t½, terminal elimination half-life in plasma (mean)",[3]; [12],22.1 h
same,AUC/wt vs. CLCR: R-square,[4],0.4911
same,AUC/wt vs. CLCR: Slope,[4],−1.4140
same,AUC vs. CLCR: R-square,[4],0.4976
same,AUC vs. CLCR: Slope,[4],−221.43
